Measurements taken from ChEMBL document CHEMBL3217615, “Novel 3,5-bis(arylidiene)-4-piperidone based monocarbonyl analogs of curcumin: anticancer activity evaluation and mode of action study” (2014).

Columns and labels:
Type in all cases: functional
[1] = system: COLO 205; experiment: Induction of apoptosis in human COLO205 cells assessed as necrotic apoptosis cells level at 10 uM after 24 hrs by Annexin V/propidium iodide staining-based fluorescence microscopy
[2] = system: COLO 205; experiment: Induction of apoptosis in human COLO205 cells assessed as early apoptosis cells level at 10 uM after 24 hrs by Annexin V/propidium iodide staining-based fluorescence microscopy
[3] = system: COLO 205; experiment: Induction of apoptosis in human COLO205 cells assessed as caspase 9 activation at 10 uM by FLICA
[4] = system: HT-29; experiment: Growth inhibition of human HT-29 cells assessed as cell growth at 10^-6 M after 48 hrs by sulforhodamine B assay; settings: HT-29, 48 h, read-out: Activity
[5] = system: NCI-H460; experiment: Growth inhibition of human NCI-H460 cells assessed as cell growth at 10^-6 M after 48 hrs by sulforhodamine B assay; settings: NCI-H460, 48 h, read-out: Activity
[6] = system: SN12C; experiment: Growth inhibition of human SN12C cells assessed as cell growth at 10^-7 M after 48 hrs by sulforhodamine B assay; settings: read-out: Activity
[7] = Growth inhibition of human OVCAR8 cells assessed as cell growth at 10^-7 M after 48 hrs by sulforhodamine B assay; settings: OVCAR-8, 48 h, read-out: Activity
[8] = system: T47D; experiment: Growth inhibition of human T47D cells assessed as cell growth at 10^-6 M after 48 hrs by sulforhodamine B assay; settings: read-out: Activity
[9] = system: A498; experiment: Growth inhibition of human A498 cells assessed as cell growth at 10^-6 M after 48 hrs by sulforhodamine B assay; settings: A498, 48 h, read-out: Activity
[10] = system: NCI-H322M; experiment: Growth inhibition of human NCI-H322M cells assessed as cell growth at 10^-4 M after 48 hrs by sulforhodamine B assay; settings: read-out: Activity
[11] = system: SR; experiment: Growth inhibition of human SR cells assessed as cell growth at 10^-4 M after 48 hrs by sulforhodamine B assay; settings: read-out: Activity
[12] = system: COLO 205; experiment: Induction of apoptosis in human COLO205 cells at 10 uM after 24 hrs by Annexin V/propidium iodide staining-based fluorescence microscopy
[13] = Growth inhibition of human UACC62 cells assessed as cell growth at 10^-8 M after 48 hrs by sulforhodamine B assay; settings: UACC-62, 48 h
[14] = system: SK-MEL-28; experiment: Growth inhibition of human SK-MEL-28 cells assessed as cell growth at 10^-8 M after 48 hrs by sulforhodamine B assay; settings: SK-MEL-28, 48 h
[15] = system: SK-MEL-2; experiment: Growth inhibition of human SK-MEL-2 cells assessed as cell growth at 10^-8 M after 48 hrs by sulforhodamine B assay; settings: SK-MEL-2, 48 h
[16] = system: MDA-MB-435; experiment: Growth inhibition of human MDA-MB-435 cells assessed as cell growth at 10^-8 M after 48 hrs by sulforhodamine B assay; settings: MDA-MB-435, 48 h
[17] = Growth inhibition of human SF539 cells assessed as cell growth at 10^-8 M after 48 hrs by sulforhodamine B assay; settings: SF-539, 48 h
[18] = system: NCI-H522; experiment: Growth inhibition of human NCI-H522 cells assessed as cell growth at 10^-8 M after 48 hrs by sulforhodamine B assay; settings: NCI-H522, 48 h
[19] = system: NCI-H23; experiment: Growth inhibition of human NCI-H23 cells assessed as cell growth at 10^-8 M after 48 hrs by sulforhodamine B assay; settings: NCI-H23, 48 h
[20] = system: HOP-62; experiment: Growth inhibition of human HOP62 cells assessed as cell growth at 10^-8 M after 48 hrs by sulforhodamine B assay; settings: HOP-62, 48 h
[21] = system: RPMI-8226; experiment: Growth inhibition of human RPMI8226 cells assessed as cell growth at 10^-8 M after 48 hrs by sulforhodamine B assay; settings: RPMI-8226, 48 h
[22] = Growth inhibition of human UACC257 cells after 48 hrs by sulforhodamine B assay; settings: UACC-257, 48 h
[23] = Growth inhibition of human SF539 cells after 48 hrs by sulforhodamine B assay; settings: SF-539, 48 h
[24] = system: SF-268; experiment: Growth inhibition of human SF268 cells after 48 hrs by sulforhodamine B assay; settings: SF-268, 48 h
[25] = system: COLO 205; experiment: Growth inhibition of human COLO205 cells after 48 hrs by sulforhodamine B assay; settings: COLO 205, 48 h
[26] = system: DU-145; experiment: Growth inhibition of human DU145 cells assessed as cell growth at 10^-4 M after 48 hrs by sulforhodamine B assay; settings: DU-145, 48 h, read-out: Activity
[27] = system: SK-MEL-5; experiment: Growth inhibition of human SK-MEL-5 cells assessed as cell growth at 10^-7 M after 48 hrs by sulforhodamine B assay; settings: SK-MEL-5, 48 h, read-out: Activity
[28] = system: SK-MEL-2; experiment: Growth inhibition of human SK-MEL-2 cells assessed as cell growth at 10^-7 M after 48 hrs by sulforhodamine B assay; settings: SK-MEL-2, 48 h, read-out: Activity
[29] = Growth inhibition of human SF539 cells assessed as cell growth at 10^-7 M after 48 hrs by sulforhodamine B assay; settings: SF-539, 48 h, read-out: Activity
[30] = system: RPMI-8226; experiment: Growth inhibition of human RPMI8226 cells assessed as cell growth at 10^-7 M after 48 hrs by sulforhodamine B assay; settings: RPMI-8226, 48 h, read-out: Activity
[31] = Growth inhibition of human BT549 cells assessed as cell growth at 10^-8 M after 48 hrs by sulforhodamine B assay; settings: BT-549, 48 h
[32] = read-out: pLC50 (the source's name) (converted)
[33] = read-out: LC50 (the source's name)

## Cc1ccc(S(=O)(=O)N2C/C(=C\c3cc(F)cc(F)c3)C(=O)/C(=C/c3cc(F)cc(F)c3)C2)cc1
[1]
  Activity: 3%
[2]
  Activity: 30%
[3]
  Activity: 40.5%
[4]
  growth at 1 µM: -22%
[5]
  growth at 1 µM: 45%
[6]
  growth at 0.1 µM: 94%
[7]
  growth at 0.1 µM: 82%
[8]
  growth at 1 µM: 74%
[9]
  growth at 1 µM: 91%
[10]
  growth at 100 µM: -44%
[11]
  growth at 100 µM: -30%
[12]
  Activity: 70%
[13]
  GI50: 214 nM
  LC50: 1620 nM
[13]; read-out: Activity
  growth at 0.01 µM: 94%
[13]; read-out: pTGI (converted)
  TGI: 513 nM
[14]
  GI50: 468 nM
[14]; read-out: Activity
  growth at 0.01 µM: 100%
[14]; [32]
  CC50: 4790 nM
[14]; read-out: pTGI (converted)
  TGI: 1780 nM
[15]
  GI50: 2000 nM
  LC50: 14800 nM
[15]; read-out: Activity
  growth at 0.01 µM: 105%
[15]; read-out: pTGI (converted)
  TGI: 4680 nM
[16]
  GI50: 240 nM
  LC50: 3630 nM
[16]; read-out: Activity
  growth at 0.01 µM: 96%
[16]; read-out: pTGI (converted)
  TGI: 692 nM
[17]
  GI50: 1200 nM
  LC50: 6760 nM
[17]; read-out: Activity
  growth at 0.01 µM: 94%
[17]; read-out: pTGI (converted)
  TGI: 2880 nM
[18]
  GI50: 316 nM
[18]; read-out: Activity
  growth at 0.01 µM: 100%
[18]; [32]
  CC50: 3890 nM
[18]; read-out: pTGI (converted)
  TGI: 955 nM
[19]
  GI50: 1740 nM
  LC50: 26900 nM
[19]; read-out: Activity
  growth at 0.01 µM: 98%
[19]; read-out: pTGI (converted)
  TGI: 5010 nM
[20]
  GI50: 2040 nM
  LC50 (concentration killing 50% of cells): 11700 nM
[20]; read-out: Activity
  growth at 0.01 µM: 98%
[20]; read-out: pTGI (converted)
  TGI: 4680 nM
[21]
  GI50: 37.1 nM
[21]; read-out: Activity
  growth at 0.01 µM: 94%
[21]; [32]
  CC50: 93300 nM
[21]; read-out: pTGI (converted)
  TGI: 331 nM
[22]
  GI50: 939 nM
  TGI: 2900 nM
[22]; [33]
  CC50: 8600 nM
[23]
  GI50: 1210 nM
  TGI: 2870 nM
[23]; [33]
  CC50: 6810 nM
[24]
  GI50: 431 nM
  TGI: 2150 nM
[24]; [33]
  CC50: 14400 nM
[25]
  GI50: 612 nM
  TGI: 2110 nM
[25]; [33]
  CC50: 6140 nM
[26]
  growth at 100 µM: -87%
[27]
  growth at 0.1 µM: 89%
[28]
  growth at 0.1 µM: 112%
[29]
  growth at 0.1 µM: 93%
[30]
  growth at 0.1 µM: 17%
[31]
  GI50: 339 nM
  LC50: 3550 nM
[31]; read-out: Activity
  growth at 0.01 µM: 102%
[31]; read-out: pTGI (converted)
  TGI: 933 nM
